What was measured:
[1] = tested on: POR-null 'target' HCT116 cell lines (PORko-R, PORko-G); test: Monolayer clonogenic assay under anoxia (targets); type: cell-based; conditions: monolayer cultures, anoxic exposure 1 h (used for ABM analysis, Figure 9A)
Excerpt: Log-phase cells were trypsinized and cell pellets, collected by centrifugation, were transferred to a Bactron anaerobic chamber (Sheldon Manufacturing Inc., Cornelius, OR, United States) under 3–5% H2/5% CO2/balance N2, <100 ppm O2, with a palladium/activated carbon catalyst to maintain anoxia. (The term “anoxia” is used throughout to refer to the gas phase, without necessarily implying complete anoxia in monolayers or spheroids as discussed below.) Cells were resuspended and seeded at 10^5 cells/0.15 mL in 96-well plates using medium and plates equilibrated in the chamber for 3 days to ensure complete deoxygenation. After incubation at 37 °C for 2 h for cell attachment, cells were exposed to drugs for 1 h, removed from the chamber, trypsinized, counted with a Coulter counter (model Z2; Beckman Coulter^TM, Indianapolis, IN, United States) and plated in 6-well plates. After 10 days, plates were stained with methylene blue (2 g/L in EtOH:H2O, 1:1 v/v) and colonies with more than 50 cells were counted. Plating efficiency (PE) was calculated as number of colonies/number of cells plated, and surviving fraction (SF) was determined as PE(drug treated)/PE(control).

[2] = tested on: high-POR 'activator' HCT116 cell lines (POR-R, POR-G); type: cell-based; conditions: monolayer cultures
[3] = tested on: POR-null 'target' HCT116 cells in spheroids; type: cell-based
[4] = tested on: high-POR 'activator' HCT116 cells in spheroids; test: Spheroid clonogenic assay under anoxia (activators in co-culture spheroids); type: cell-based; conditions: spheroids comprising 100% activators, anoxic exposure 1 h (Figure 9B)
[5] = tested on: POR-G activators and PORko-R targets (HCT116)
[6] = physchem
[7] = tested on: HCT116 and HCT116/POR#6; conditions: cited from earlier work
[8] = published value, PR104H+M model, ref Foehrenbacher et al., 2013
[9] = published value, ref Foehrenbacher et al., 2013

With `CS(=O)(=O)OCCN(CCBr)c1c(C(=O)NCCO)cc([N+](=O)[O-])cc1[N+](=O)[O-]` [PR104A] the “PR-104A concentration giving 90% kill” value [1] was 17 µM, the “PR-104A concentration giving 90% kill” value ([2]; activators, anoxic exposure 1 h (used for ABM analysis, Figure 9A)) was 1 µM and the “sensitivity of activator cell lines (clonogenic survival)” value ([2]; 1 h under anoxia, relative to targets) was “marked increases in the sensitivity”. The “killing of target cells as proportion of activators increases” value ([3]; co-culture spheroids 0, 10, 50 or 100% activators, 1 h under anoxia) was “markedly increased with increasing proportion of POR-G activator cells”, the bystander effect ([3]; spheroid co-cultures with ABM simulation, anoxia) was “clearly demonstrated the existence of a bystander effect” and the “concentration giving 90% kill in spheroids” value ([3]; spheroids comprising 100% targets, anoxic exposure 1 h (Figure 9B)) was 20 µM. The “concentration giving 90% kill in spheroids” value [4] was 5 µM, the “Activator F2, proportion of O2-dependent rate of metabolism of the drug in activators” value [5] was 0.977 and the “Activator Kmet,0, rate constant for the maximum rate of metabolism in activator cells under anoxia” value [5] was 2 min⁻¹. For the same molecule, the Hill parameter n [5] was 2, the “KO2, O2 concentration for half-maximum prodrug activation” value [5] was 0.126 and the “Kc, intrinsic cytotoxic potency” value [5] was 0 M⁻¹ s⁻¹. For the same molecule, the “Kin, rate constant for transfer from the extracellular to the intracellular compartment” value [5] was 3 min⁻¹, the “Kout, rate constant for transfer from the intracellular to the extracellular compartment” value [5] was 0.5 min⁻¹ and the “Target F2, proportion of O2-dependent rate of metabolism of the drug in targets” value [5] was 0.977. The “Target Kmet,0, rate constants for the maximum rate of metabolism in target cells under anoxia” value [5] was 0.03 min⁻¹, the half-life [6] was 10.2 h and the “Half-life, non-enzymatic loss in culture medium” value ([7]; 37 °C, published value, PR104H+M model, ref Foehrenbacher et al., 2013) was 10.2 h. The “Activator Kmet,0, rate constant for the maximum rate of metabolism in activator cells under anoxia” value [7, 8] was 1.08 min⁻¹, the “Kc, intrinsic cytotoxic potency” value [7, 8] was 0 M⁻¹ s⁻¹ and the “Kin, rate constant for transfer from the extracellular to the intracellular compartment” value [7, 8] was 3 min⁻¹. For the same molecule, the “Kout, rate constant for transfer from the intracellular to the extracellular compartment” value [7, 8] was 0.5 min⁻¹, the “Target Kmet,0, rate constants for the maximum rate of metabolism in target cells under anoxia” value [7, 8] was 0.054 min⁻¹ and the “Activator F2, proportion of O2-dependent rate of metabolism of the drug in activators” value [7, 9] was 0.977. The Hill parameter n [7, 9] was 1, the “Target F2, proportion of O2-dependent rate of metabolism of the drug in targets” value [7, 9] was 0.977 and the “KO2, O2 concentration for half-maximum prodrug activation” value ([7]; published value, ref Hicks et al., 2007) was 0.126. The “KO2 (sensitivity of PR104A metabolism to oxygen)” value ([7]; ref Hicks et al., 2007) was 0.126 µM.
